Assay results as given in patent publication US20050089558A1 (Alamo Pharmaceuticals, LLC, priority 2003, published 2005).
Like-named read-outs stand apart in the source and are kept apart here.

Experiments:
[1] = system: abdominal muscle contractions (writhing) induced by 0.6% acetic acid; test: acetic acid writhing test of analgesia in mice; type: in vivo, Crl:CFW (SW) BR mice; conditions: 0.6% acetic acid i.p. 30 min later, male mice; for Ave. # of writhes: 15-minute count
Description: In the animal studies presented in Examples 5-7, tramadol and dextro-propoxyphene were administered neat (undiluted), or were diluted with diluted with saline (i.e. 0.9% Sodium Chloride for injection) in order to achieve the desired dose volumes. Fresh solutions were prepared for each concentration (of each compound) prior to administration.
Acetic acid was used to assess experimental pain or “writhing.” Specifically, thirty minutes after dosing, the writhing-induction agent (0.6% Acetic Acid) was administered to all experimental groups by intraperitoneal injection at a dose volume of 10 mL/kg.
Crl:CFW® (SW) BR mice, from Charles River Laboratories were used as the animal model to test the analgesia of the tramadol/propoxyphene co-formulations. The test animals were approximately 4 weeks of age on arrival and each animals weighed approximately 22 to 28 g within 3 days of arrival. […] Animals considered suitable for study were weighed prior to treatment and randomized, by sex, into treatment groups using a standard, by weight, block randomization procedure.
The protocols employed assessed the qualitative and quantitative changes in abdominal muscle contractions (writhing) induced after the […] administration of a noxious chemical stimulus, 0.6% acetic acid, in mice. The degree and amount of contractile abdominal activity is a measure of “experimentally-induced pain”. A decrease in the amount of writhing with prior administration of a test article is an experimental measure of “analgesia.”
Dose-response functions were generated for each of the two (2) test articles (tramadol, dextro-propoxyphene,). ED50 values for analgesic activity were estimated using a least squares linear regression analysis procedure using PHARM/PCS or SAS.
The test article, positive control, and vehicle were administered to all groups as a single subcutaneous injection in the scapular region on the back at a dose volume of 10 mL/kg and at the dose levels as presented in Table 1 below.
Thirty minutes after dosing, the writhing-induction article, 0.6% acetic acid, was administered to all groups by intraperitoneal injection at a dose volume of 10 mL/kg.
Immediately after administration of the writhing-induction article, animals were placed into a poly-observation chamber and a 15-minute evaluation period was initiated. During the 15-minute evaluation period, the number of “writhes” that occurred were recorded. For scoring purposes, a “writhe” was indicated by whole body stretching or contraction of the abdomen, further described as waves of contraction of the abdominal musculature, twisting and turning of the trunk, and hind-limb extension.

NMDA receptor = conditions: in words, a recent study; cited from earlier work
[2] = in vivo; cited from earlier work
opioid receptors = conditions: in words; cited from earlier work
[3] = cited from earlier work; for half-life: after a single oral dose of 100 mg tramadol, 2-compartmental elimination; for accumulation: during multiple dose treatment with tramadol
mu receptors of the CNS = mu receptors of the CNS (Homo sapiens, UniProt P35372); conditions: relative to morphine; cited from earlier work
[4] = in words; cited from earlier work

Sequence of mu receptors of the CNS (P35372 whole entry): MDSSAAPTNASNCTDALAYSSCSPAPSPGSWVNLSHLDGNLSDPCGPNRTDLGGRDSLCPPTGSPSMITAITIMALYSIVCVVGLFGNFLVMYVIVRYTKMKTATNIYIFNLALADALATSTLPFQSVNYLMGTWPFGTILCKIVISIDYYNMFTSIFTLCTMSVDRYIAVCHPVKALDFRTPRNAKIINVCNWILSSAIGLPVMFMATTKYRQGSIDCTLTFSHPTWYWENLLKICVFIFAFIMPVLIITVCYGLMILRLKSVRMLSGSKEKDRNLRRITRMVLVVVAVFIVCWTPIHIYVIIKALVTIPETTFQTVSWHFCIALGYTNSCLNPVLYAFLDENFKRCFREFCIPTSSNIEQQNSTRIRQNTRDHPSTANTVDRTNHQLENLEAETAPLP

Compound | Ave. # of writhes ([1]; 1.0 mg/kg single s.c. dose) | % Analgesia ([1]; 1.0 mg/kg single s.c. dose) [%] | Ave. # of writhes ([1]; 3.2 mg/kg single s.c. dose) | % Analgesia ([1]; 3.2 mg/kg single s.c. dose) [%] | affinity for opioid receptors (opioid receptors) | half-life [3] [h] | accumulation [3] | also measured
CCC(=O)OC(Cc1ccccc1)(c1ccccc1)C(C)CN(C)C (stereo not drawn) [Propoxyphene, 2-Butanol, 4-(dimethylamino)-3-methyl-1,2-diphenyl-, propionate, (+)-] | 59.4 | −12.29 | 45.4 | 14.18 |  |  |  | Ave. # of writhes ([1]; 10.0 mg/kg single s.c. dose): 26.7; % Analgesia ([1]; 10.0 mg/kg single s.c. dose): 49.53%; activity at the NMDA receptor (NMDA receptor): antagonist activity; half-life [2]: 6 to 12 h
CN(C)CC1CCCCC1(O)c1cccc(O)c1 (centres unmarked) [M1 derivative, O-demethyl tramadol] |  |  |  |  | higher affinity for opioid receptors than the parent drug | 9 | approximately 2 fold | 
COc1cccc([C@]2(O)CCCC[C@H]2CN(C)C)c1 (racemic) [Tramadol, cyclohexanol, 2-((dimethylamino)methyl)-1-(3-methoxyphenyl)-, cis-(+−)-] | 55.1 | −4.16 | 31.7 | 40.08 | low affinity | 5.1 | approximately 2 fold | Ave. # of writhes ([1]; 0.32 mg/kg single s.c. dose): 54.6; % Analgesia ([1]; 0.32 mg/kg single s.c. dose): −3.21%; duration of the analgesic effect ([3]; after a single oral dose of tramadol 100 mg): about 6 hours; bioavailability ([3]; after oral administration): 68%; time to peak serum concentrations ([3]; after oral administration): ≤ 2 h; time to peak plasma levels ([3]; following oral administration): ≤ 2 h; affinity for mu receptors of the CNS, times lower than that of morphine (mu receptors of the CNS): 6000 times
CCC(=O)O[C@](Cc1ccccc1)(c1ccccc1)[C@H](C)CNC [norpropoxyphene] |  |  |  |  |  |  |  | analgesic properties [4]: very weak analgesic properties
